Results published in ChEMBL document CHEMBL3046084, “Synthesis and evaluation of p-N,N-dialkyl substituted chalcones as anti-cancer agents” (Med Chem Res, 2013).
Activity calls are given as the source filed them. The calls are words filed in the database; no cut-off is given here.

Assays:
[1] = system: Mycolicibacterium smegmatis; test: Anti-mycobacterial activity against Mycobacterium smegmatis assessed as diameter of growth inhibition zone at 10 mM; assay type: functional; conditions: read-out: DIZ
[2] = molecular target: Beta-secretase 1 (Homo sapiens) (UniProt P56817); test: Inhibition of Homo sapiens (human) recombinant BACE1 using FRET peptide Abz-YIWDEIDLMVLD-DNP as substrate at 50 uM preincubated with enzyme for 30 min prior to substrate addition measured by plate reader analysis
MCF7 = test: Anticancer activity against Homo sapiens (human) MCF7 cells assessed as inhibition of cell viability by SRB assay; assay type: functional, cell-based

Beta-secretase 1 (Homo sapiens), sequence (P56817 whole entry): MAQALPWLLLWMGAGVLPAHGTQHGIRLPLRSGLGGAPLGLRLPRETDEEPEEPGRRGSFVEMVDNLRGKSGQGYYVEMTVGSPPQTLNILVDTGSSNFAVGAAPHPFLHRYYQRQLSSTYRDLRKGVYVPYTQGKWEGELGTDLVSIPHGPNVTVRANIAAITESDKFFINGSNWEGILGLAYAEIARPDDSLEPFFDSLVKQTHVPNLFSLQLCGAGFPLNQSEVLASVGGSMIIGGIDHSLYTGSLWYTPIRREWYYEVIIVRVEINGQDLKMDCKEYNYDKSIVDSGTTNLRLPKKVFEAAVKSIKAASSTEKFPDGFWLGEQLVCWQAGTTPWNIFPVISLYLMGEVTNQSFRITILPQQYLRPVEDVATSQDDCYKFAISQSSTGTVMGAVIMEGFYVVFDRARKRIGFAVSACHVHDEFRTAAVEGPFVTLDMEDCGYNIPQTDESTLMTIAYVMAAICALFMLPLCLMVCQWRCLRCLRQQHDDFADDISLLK

IC50 (MCF7) [µM]	Compound	other results
	O=C(/C=C/c1ccc(N(Cc2ccccc2)Cc2ccccc2)cc1)c1ccco1	zone of inhibition at 10000 µM [1]: 15 mm
	COc1cc(C(=O)/C=C/c2ccc(N(Cc3ccccc3)Cc3ccccc3)cc2)cc(OC)c1OC	inhibition [2]: Active
50	O=C(/C=C/c1ccc(N2CCN(CCO)CC2)cc1)c1ccc(Br)cc1	
50	O=C(/C=C/c1ccc(N2CCN(CCO)CC2)cc1)c1ccc(Cl)cc1	
